Ends that are not written are not given here.
How the values were obtained:
[1] = tested on: primary rat in vitro BBB model (primary rat endothelial cells co-cultured with primary rat glial cells); conditions: for permeability coefficient (Pe) through in vitro BBB: pH 7.4
Experimental: (§1) The permeability of peptides was assessed using a primary rat in vitro BBB model. […] Transendothelial electrical resistance (TEER) measurements were used to measure the resistance of tight junctions in our BBB model. For our experiments, we used only inserts with the TEER value ≥320 ± 20 Ώ cm^−2 that corresponded to an intact in vitro BBB model. Alternatively, the integrity of the in vitro rat BBB model was assessed by measuring the permeability of the paracellular compound Lucifer Yellow (LY). Lucifer Yellow was added to the well with the peptides.
(§2) To test the permeability of selected peptides across in vitro BBB model, peptide transport to the abluminal compartment was quantified by ultra-high-performance liquid chromatography/mass spectrometry (UHPLC–MS/MS) method.
(§3) As a negative control, we performed the permeability experiments with N–C reversed sequence peptides: [sequence] and [sequence].
(§4) To test the effect of temperature on the transport of peptides across BBB, endothelial cells were incubated with peptides at 4°C to reduce cell metabolism which slows down endocytosis.
(§5) Briefly, 4 Sprague–Dawley rats (200–250 g, 6 months old) were euthanized, and the whole brains were removed. Under sterile conditions, the brainstem and cerebellum were dissected, and the midbrain, white matter, and choroid plexus were removed. The remaining cortical tissue was cleaned from meninges on dry Whatman paper. The tissue was homogenized on ice in DMEM-F12 (PAA laboratories GmbH, Germany). The brain homogenate was centrifuged at 800× g for 10 min at 4 °C. The supernatant was aspirated, and the pellet was resuspended in pre-warmed digestion mix containing collagenase/dispase (Roche Diagnostics, Indianapolis, IN, USA) and DNase I (Sigma–Aldrich, St. Louis, MO, USA). The tissue was incubated with a prepared digestion mix at 37 °C for 30 min with gentle shaking. Digested tissue was centrifuged at 800× g for 10 min at 4 °C, and the pellet was resuspended in 20% bovine serum albumin (BSA, Sigma–Aldrich, St. Louis, MO). The tissue was centrifuged at 1500× g for 15 min at 4 °C to obtain pellet containing microvessels with a fraction of myelin and BSA on the top, which was centrifuged again. The microvessels were pooled and resuspended in pre-warmed digestion mix and digested for 15 min at 37 °C. The microvessels pellet was again centrifuged at 800× g for 10 min at 4 °C and washed with culture medium containing the serum. The microvessels were cultured in DMEM-F12 medium (PAA Laboratories GmbH, Germany) containing 15% plasma-derived serum (PDS) (First Link, UK), 2 mM L-glutamine (GE Healthcare, UK), BME vitamins (Sigma–Aldrich, St. Louis, MO), heparin (Sigma–Aldrich, St. Louis, MO) and 3 µM puromycine (Sigma–Aldrich, St. Louis, MO). After 7 days, cells were seeded on the upper chamber (apical compartment) of Transwell insert with a 0.4 µm pore size (Becton Dickinson, New Jersey, USA) pre-coated with 10 µg/cm^2 collagen type IV (Sigma–Aldrich, St. Louis, MO) and 5 µg/cm^2 fibronectin (Sigma–Aldrich, St. Louis, MO).

in vitro = conditions: Sprague-Dawley, rat, pH 7.4
Experimental: as §1, §2, §3, §4, §5

[2] = tested on: primary rat in vitro BBB model; assay: Permeability of endothelium to Lucifer Yellow (BBB integrity); type: in vitro ADME; conditions: 10 µM Lucifer Yellow apical, added with the peptides; Ringer-HEPES pH 7.4; 37 °C; 5-60 min; fluorescence 428/536 nm
Experimental: All incubations were performed at 37 °C.

permeability at 4 °C (37 °C: 100%) [1]	permeability reduced at 4 °C [1]	Papp A→B (in vitro)	permeability coefficient (Pe) through in vitro BBB [1]	endothelial permeability coefficient (Pe) of LY [2]	Substance
69%	30.5%	1.5 ×10⁻⁶ cm/s	–	–	VAARTGEIYVPW
79%	20.5%	–	3.3e-07 cm/s	–	GLHTSATNLYLH
–	–	–	–	around 11 × 10^−6 cm/s	Lucifer Yellow
–	–	–	7.5e-07 cm/s	–	HLYLNTASTHLG
–	–	0.5 ×10⁻⁶ cm/s	–	–	WPVYIEGTRAAV

From publication PMC7070575, “Novel Blood–Brain Barrier Shuttle Peptides Discovered through the Phage Display Method” (Molecules, 2020)
